Experimental data: patent US20120165330A1, “QUINAZOLINONE AND RELATED ANALOGS AS SIRTUIN MODULATORS” (Sirtris Pharmaceuticals, Inc., priority 2010, published 2012)
Read-outs that look alike come from different tables or passages of the source.

Key:
[1] = molecular target: T1, SIRT2 (Homo sapiens, UniProt Q8IXJ6); assay: mass spectrometry based assay to identify modulators of SIRT2 inhibition; format: biochemical
T1 sequence (Q8IXJ6 1-389): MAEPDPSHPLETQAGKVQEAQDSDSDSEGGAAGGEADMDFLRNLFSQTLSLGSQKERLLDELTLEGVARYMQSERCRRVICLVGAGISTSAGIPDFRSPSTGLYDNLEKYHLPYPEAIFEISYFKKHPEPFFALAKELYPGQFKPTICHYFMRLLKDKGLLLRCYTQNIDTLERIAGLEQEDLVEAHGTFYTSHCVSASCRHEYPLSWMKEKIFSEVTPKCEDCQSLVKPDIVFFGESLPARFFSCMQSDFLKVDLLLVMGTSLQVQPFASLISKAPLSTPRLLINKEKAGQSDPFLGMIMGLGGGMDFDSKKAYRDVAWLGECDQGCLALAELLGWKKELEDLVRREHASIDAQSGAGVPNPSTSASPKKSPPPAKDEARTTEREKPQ
Description: (§1) A mass spectrometry based assay was used to identify modulators of SIRT2 inhibition. […] The peptide is labeled with the fluorophore 5TMR (excitation 540 nm/emission 580 nm) at the C-terminus. The sequence of the peptide substrate is based on p53 with several modifications. In addition, the methionine residue naturally present in the sequence was replaced with the norleucine because the methionine may be susceptible to oxidation during synthesis and purification.
(§2) Test compounds may be added to the reaction as described above. The SirT2 gene is cloned into a T7-promoter containing vector and transformed into BL21(DE3). After the 30 minute incubation with SIRT2, 10 μL of 10% formic acid is added to stop the reaction. Reactions are sealed and frozen for later mass spec analysis. Determination of the mass of the substrate peptide allows for precise determination of the degree of acetylation (i.e. starting material) as compared to deacetylated peptide (product).
(§3) This timepoint is the same as that used for test compounds and, within the linear range, the endpoint represents a change in velocity.
For the above assay, SIRT2 protein was expressed and purified as follows. The SirT2 gene was cloned into a T7-promoter containing vector and transformed into BL21(DE3) with chaperone plasmid. The protein was expressed by induction with 0.3 mM IPTG as an N-terminal His-tag fusion protein at 18° C. overnight and harvested at 30,000×g. Cells were lysed with sonication in lysis buffer (50 mM Tris-HCl, 10% glycerol, 300 mM NaCl, pH 7.8) for 10 min. The protein was purified over a Ni-NTA column (GE Healthcare) and eluted with lysis buffer containing 100 to 250 mM imidazole. Fractions containing target protein were pooled and TEV protease (Invitrogen) was added to the protein and incubated at 4° C. overnight in lysis buffer to remove the N-terminal His tag. The treated sample was added back on Ni-NTA column. Target protein was obtained by eluting with lysis buffer with 5 mM imidazole and loaded onto the Q-Sepharose F.F. column. The flow-through fraction of Q-Sepharose F.F. column was then directly re-adsorbed on the SP-Sepharose F.F. column and eluted with 20 mM Tris-HCl, 100 mM NaCl, pH 7.8. The protein was concentrated with 50 ml Amicon Ultra centrifugal-filter device (Millipore), then loaded on S-200 gel filtration column and eluted with 20 mM Tris-HCl, 200 mM NaCl, pH 8.0. The protein was aliquoted and frozen at −80° C. until further use.

[2] = molecular target: T2, SIRT1 (Homo sapiens, UniProt Q96EB6); assay: mass spectrometry based assay to identify modulators of SIRT1 activity; format: biochemical; conditions: for Emax: 25 min, percent maximum fold activation of SIRT1, read-out: SIRT1 % FOLD ACT.; for EC1.5 (concentration for 1.5-fold activation): concentration for 1.5-fold activation of SIRT1 deacetylase, 0.5 μM peptide substrate, 120 μM βNAD+, 10 nM SIRT1, 25 min at 25° C.
T2 sequence (Q96EB6 1-747): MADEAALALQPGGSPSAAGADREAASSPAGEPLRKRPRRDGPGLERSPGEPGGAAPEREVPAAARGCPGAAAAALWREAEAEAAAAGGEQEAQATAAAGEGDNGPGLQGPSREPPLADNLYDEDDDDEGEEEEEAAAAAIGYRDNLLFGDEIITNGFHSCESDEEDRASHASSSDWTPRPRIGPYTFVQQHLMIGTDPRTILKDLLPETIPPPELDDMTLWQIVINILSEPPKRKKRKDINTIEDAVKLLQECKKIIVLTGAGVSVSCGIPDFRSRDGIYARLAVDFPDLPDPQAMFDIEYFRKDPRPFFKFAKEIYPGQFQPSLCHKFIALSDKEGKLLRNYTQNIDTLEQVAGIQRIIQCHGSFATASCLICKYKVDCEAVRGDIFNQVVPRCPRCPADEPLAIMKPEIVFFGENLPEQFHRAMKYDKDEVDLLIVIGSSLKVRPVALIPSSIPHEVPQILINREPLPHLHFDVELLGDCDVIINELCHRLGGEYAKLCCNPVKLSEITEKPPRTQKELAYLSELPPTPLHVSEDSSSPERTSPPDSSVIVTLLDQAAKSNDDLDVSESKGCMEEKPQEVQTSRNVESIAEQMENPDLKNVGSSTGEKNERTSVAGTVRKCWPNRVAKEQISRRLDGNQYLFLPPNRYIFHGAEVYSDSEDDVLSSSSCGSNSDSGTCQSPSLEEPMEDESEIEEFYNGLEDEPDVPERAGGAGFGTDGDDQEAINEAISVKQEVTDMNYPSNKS
Description: as §1, with “SIRT1 activity.” for “SIRT2 inhibition.”
as §2, with “SirT1” for “SirT2”, “25” for “30”, “SIRT1,” for “SIRT2,”
as §3
For the above assay, SIRT1 protein was expressed and purified as follows. The SirT1 gene was cloned into a T7-promoter containing vector and transformed into BL21(DE3). The protein was expressed by induction with 1 mM IPTG as an N-terminal His-tag fusion protein at 18° C. overnight and harvested at 30,000×g. Cells were lysed with lysozyme in lysis buffer (50 mM Tris-HCl, 2 mM Tris[2-carboxyethyl]phosphine (TCEP), 10 μM ZnCl2, 200 mM NaCl) and further treated with sonication for 10 min for complete lysis. The protein was purified over a Ni-NTA column (Amersham) and fractions containing pure protein were pooled, concentrated and run over a sizing column ([…]). The peak containing soluble protein was collected and run on an Ion-exchange column (MonoQ). Gradient elution (200 mM-500 mM NaCl) yielded pure protein. This protein was concentrated and dialyzed against dialysis buffer (20 mM Tris-HCl, 2 mM TCEP) overnight. The protein was aliquoted and frozen at −80° C. until further use.

[3] = 2.68 μM peptide substrate, 135 μM βNAD+, 50 nM SIRT2, 30 min at room temperature, read-out: SIRT2 IC50 UM

| IC50 [1, 3] [µM] | Emax [2] [%] | EC1.5 (concentration for 1.5-fold activation) ([2]; read-out: SIRT1 EC1.5 UM) [µM] | Compound | EC1.5 (concentration for 1.5-fold activation) ([2]; read-out: SIRT1 EC1.5 µM) [µM] | IC50 [1] [µM] |
| --- | --- | --- | --- | --- | --- |
| < 10 |  |  | Cc1nc2cccc(NC(=O)c3cscn3)c2c(=O)n1-c1cccc(C(F)(F)F)c1 [Compound 1, N-(2-methyl-4-oxo-3-(3-(trifluoromethyl)phenyl)-3,4-dihydroquinazolin-5-yl)thiazole-4-carboxamide] |  |  |
| 10 to 50 | > 150 | < 50 | Cc1nc2cccc(NC(=O)c3cnccn3)c2c(=O)n1-c1cccc(OC(F)(F)F)c1 [Compound 4, N-(2-methyl-4-oxo-3-(3-(trifluoromethoxy)phenyl)-3,4-dihydroquinazolin-5-yl)pyrazine-2-carboxamide] |  |  |
| 10 to 50 | < 150 | > 50 | Cc1nc2cccc(NC(=O)Cc3cccnc3)c2c(=O)n1-c1cccc(OC(F)(F)F)c1 [Compound 5, N-(2-methyl-4-oxo-3-(3-(trifluoromethoxy)phenyl)-3,4-dihydroquinazolin-5-yl)-2-(pyridin-3-yl)acetamide] |  |  |
|  | > 150 | < 50 | Cc1nc2cccc(NC(=O)c3cccc(CN4CCOCC4)n3)c2c(=O)n1-c1cccc(C(F)(F)F)c1 [Compound 7, N-(2-methyl-4-oxo-3-(3-(trifluoromethyl)phenyl)-3,4-dihydroquinazolin-5-yl)-6-(morpholinomethyl)picolinamide] |  |  |
|  | > 150 | < 50 | Cc1nc2cccc(NC(=O)c3cscn3)c2c(=O)n1-c1cccc(C(F)(F)F)c1 [Compound 8, N-(2-methyl-4-oxo-3-(3-(trifluoromethyl)phenyl)-3,4-dihydroquinazolin-5-yl)thiazole-4-carboxamide] |  |  |
|  | > 150 | < 50 | Cc1nc2cccc(NC(=O)c3cccc(OCC(O)CO)n3)c2c(=O)n1-c1cccc(OC(F)(F)F)c1 (stereo not drawn) [Compound 9, 6-(2,3-dihydroxypropoxy)-N-(2-methyl-4-oxo-3-(3-(trifluoromethoxy)phenyl)-3,4-dihydroquinazolin-5-yl)picolinamide] |  |  |

| Compound | IC50 [1, 3] [µM] | Emax [2] [%] | EC1.5 (concentration for 1.5-fold activation) ([2]; read-out: SIRT1 EC1.5 UM) [µM] | EC1.5 (concentration for 1.5-fold activation) ([2]; read-out: SIRT1 EC1.5 µM) [µM] | IC50 [1] [µM] |
| --- | --- | --- | --- | --- | --- |
| Cc1nc2cccc(NC(=O)c3cnccn3)c2c(=O)n1-c1cccc(C(F)(F)F)c1 [Compound 2, N-(2-methyl-4-oxo-3-(3-(trifluoromethyl)phenyl)-3,4-dihydroquinazolin-5-yl)pyrazine-2-carboxamide] |  | > 150 |  | < 50 | 10 to 50 |
| Cc1nc2cccc(NC(=O)c3cscn3)c2c(=O)n1-c1cccc(OC(F)(F)F)c1 [Compound 3, N-(2-methyl-4-oxo-3-(3-(trifluoromethoxy)phenyl)-3,4-dihydroquinazolin-5-yl)thiazole-4-carboxamide] | < 10 | < 150 | > 50 |  |  |
| Cc1nc2cccc(NC(=O)c3cccc(OCC(O)CO)n3)c2c(=O)n1-c1cccc(C(F)(F)F)c1 (stereo not drawn) [Compound 6, 6-(2,3-dihydroxypropoxy)-N-(2-methyl-4-oxo-3-(3-(trifluoromethyl)phenyl)-3,4-dihydroquinazolin-5-yl)picolinamide] |  | > 150 |  | < 50 |  |
